These compounds were tested on KMS.12.BM cells (assay: KMS.12.BM Cell Viability Assay (Example B1)). Settings: Homo sapiens, 72 h, 3 days, Cell Titer-GLO, read-out: KMS cellular IC50.
Format: cell-based, human
Procedure, shortened: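 KMS.12.BM human myeloma cells, 5000 cells/well in RPMI with 10% FBS, exposed to a compound concentration range for 3 days. Viable cells measured by ATP-based Cell Titer-GLO luminescence after 10 min at room temperature.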
`CCC(=O)N[C@@H]1CCN(c2nc3ccc(-c4c(C)noc4C)c4c3n2[C@@H](c2ccccn2)CO4)C1` [Example 208, N-{(3R)-1-[(4S)-7-(3,5-dimethylisoxazol-4-yl)-4-pyridin-2-yl-4,5-dihydroimidazo[1,5,4-de][1,4]benzoxazin-2-yl]pyrrolidin-3-yl}propanamide] gave an IC50 of less than 1000 nM. In the case of `Cc1noc(C)c1-c1ccc2nc(N(C)C)n3c2c1OCC3c1ccccn1` (stereo not drawn) [Example 187, 7-(3,5-dimethylisoxazol-4-yl)-N,N-dimethyl-4-pyridin-2-yl-4,5-dihydroimidazo[1,5,4-de][1,4]benzoxazin-2-amine], the IC50 is reported as less than 1000 nM. Work on `Cc1noc(C)c1-c1ccc2nc(N3CC[C@@H](NS(C)(=O)=O)C3)n3c2c1OC[C@@H]3c1ccccn1` [Example 207, N-{(3R)-1-[(4S)-7-(3,5-dimethylisoxazol-4-yl)-4-pyridin-2-yl-4,5-dihydroimidazo[1,5,4-de][1,4]benzoxazin-2-yl]pyrrolidin-3-yl}methanesulfonamide] yielded an IC50 of less than 1000 nM. Compound `CCS(=O)(=O)N[C@@H]1CCN(c2nc3ccc(-c4c(C)noc4C)c4c3n2[C@@H](c2ccccn2)CO4)C1` [Example 214, N-{(3R)-1-[(4S)-7-(3,5-dimethylisoxazol-4-yl)-4-pyridin-2-yl-4,5-dihydroimidazo[1,5,4-de][1,4]benzoxazin-2-yl]pyrrolidin-3-yl}ethanesulfonamide] has an IC50 of less than 1000 nM. Work on `Cc1noc(C)c1-c1ccc2nc(N3CCN(C)CC3)n3c2c1OC[C@@H]3c1ccccn1` [Example 163, (4S)-7-(3,5-dimethylisoxazol-4-yl)-2-(4-methylpiperazin-1-yl)-4-pyridin-2-yl-4,5-dihydroimidazo[1,5,4-de][1,4]benzoxazine] yielded an IC50 of less than 1000 nM. With `CC(=O)NC1CCN(c2nc3ccc(-c4c(C)noc4C)c4c3n2[C@@H](c2ccccn2)CO4)CC1` [Example 190, N-{1-[(4S)-7-(3,5-dimethylisoxazol-4-yl)-4-pyridin-2-yl-4,5-dihydroimidazo[1,5,4-de][1,4]benzoxazin-2-yl]piperidin-4-yl}acetamide] the IC50 was less than 1000 nM. In the case of `Cc1noc(C)c1-c1ccc2nc(N3CC[C@@H](N(C)C(=O)CC#N)C3)n3c2c1OC[C@@H]3c1ccccn1` [Example 152, 2-Cyano-N-{(3R)-1-[(4S)-7-(3,5-dimethylisoxazol-4-yl)-4-pyridin-2-yl-4,5-dihydroimidazo[1,5,4-de][1,4]benzoxazin-2-yl]pyrrolidin-3-yl}-N-methylacetamide], the IC50 is reported as less than 1000 nM. For `Cc1noc(C)c1-c1ccc2[nH]c(=O)n3c2c1OC(C(=O)NCCO)C3c1ccccc1` (single isomer, unassigned) [Example 48B, 7-(3,5-Dimethylisoxazol-4-yl)-N-(2-hydroxyethyl)-2-oxo-4-phenyl-1,2,4,5-tetrahydroimidazo[1,5,4-de][1,4]benzoxazine-5-carboxamide], the IC50 was 1000 to 10000 nM. For `Cc1noc(C)c1-c1ccc2nc(N3CCC(C(N)=O)CC3)n3c2c1OC[C@@H]3c1ccccn1` [Example 188, 1-[(4S)-7-(3,5-dimethylisoxazol-4-yl)-4-pyridin-2-yl-4,5-dihydroimidazo[1,5,4-de][1,4]benzoxazin-2-yl]piperidine-4-carboxamide], the IC50 was less than 1000 nM. `CN[C@@H]1CCN(c2nc3ccc(-c4c(C)noc4C)c4c3n2[C@@H](c2ccccn2)CO4)C1` [Example 181A, (3R)-1-[(4S)-7-(3,5-dimethylisoxazol-4-yl)-4-pyridin-2-yl-4,5-dihydroimidazo[1,5,4-de][1,4]benzoxazin-2-yl]-N-methylpyrrolidin-3-amine] gave an IC50 of less than 1000 nM. `Cc1noc(C)c1-c1ccc2nc(N3CCCN(S(C)(=O)=O)CC3)n3c2c1OC[C@@H]3c1ccccn1` [Example 149, (4S)-7-(3,5-Dimethylisoxazol-4-yl)-2-[4-(methylsulfonyl)-1,4-diazepan-1-yl]-4-pyridin-2-yl-4,5-dihydroimidazo[1,5,4-de][1,4]benzoxazine] was tested, and the IC50 was less than 1000 nM. `Cc1noc(C)c1-c1ccc2nc(N3CCC[C@@H](O)C3)n3c2c1OC[C@@H]3c1ccccn1` [Example 170A, (3R)-1-[(4S)-7-(3,5-dimethylisoxazol-4-yl)-4-pyridin-2-yl-4,5-dihydroimidazo[1,5,4-de][1,4]benzoxazin-2-yl]piperidin-3-ol] gave an IC50 of less than 1000 nM. `COC(=O)c1ncccc1C1COc2c(-c3c(C)noc3C)ccc3[nH]c(=O)n1c23` (racemic) [Example 132, Methyl 3-[7-(3,5-dimethylisoxazol-4-yl)-2-oxo-1,2,4,5-tetrahydroimidazo[1,5,4-de][1,4]benzoxazin-4-yl]pyridine-2-carboxylate] showed an IC50 of less than 1000 nM. In the case of `Cc1noc(C)c1-c1ccc2nc(N3CC[C@@H](NC(=O)OC(C)(C)C)C3)n3c2c1OC[C@@H]3c1ccccn1` [Example 182A, tert-butyl {(3R)-1-[(4S)-7-(3,5-dimethylisoxazol-4-yl)-4-pyridin-2-yl-4,5-dihydroimidazo[1,5,4-de][1,4]benzoxazin-2-yl]pyrrolidin-3-yl}carbamate], the IC50 is reported as less than 1000 nM. In the case of `Cc1noc(C)c1-c1ccc2nc(N3CC(O)C3)n3c2c1OC[C@@H]3c1ccccn1` [Example 165, 1-[(4S)-7-(3,5-dimethylisoxazol-4-yl)-4-pyridin-2-yl-4,5-dihydroimidazo[1,5,4-de][1,4]benzoxazin-2-yl]azetidin-3-ol], the IC50 is reported as less than 1000 nM. In the case of `Cc1noc(C)c1-c1cc(Br)c2[nH]c(=O)n3c2c1OCC3c1ccccn1` (single isomer, unassigned) [Example 267B, 9-bromo-7-(3,5-dimethylisoxazol-4-yl)-4-pyridin-2-yl-4,5-dihydroimidazo[1,5,4-de][1,4]benzoxazin-2(1H)-one], the IC50 is reported as less than 1000 nM. Compound `Cc1noc(C)c1-c1ccc2nc(N3CCN4CCC[C@H]4C3)n3c2c1OC[C@@H]3c1ccccn1` [Example 193A, (4S)-7-(3,5-dimethylisoxazol-4-yl)-2-[(8aS)-hexahydropyrrolo[1,2-a]pyrazin-2(1H)-yl]-4-pyridin-2-yl-4,5-dihydroimidazo[1,5,4-de][1,4]benzoxazine] has an IC50 of less than 1000 nM. `Cc1noc(C)c1-c1ccc2[nH]c(=S)n3c2c1OCC3c1ccccn1` (stereo not drawn) [Example 255, 7-(3,5-Dimethylisoxazol-4-yl)-4-pyridin-2-yl-4,5-dihydroimidazo[1,5,4-de][1,4]benzoxazine-2(1H)-thione] gave an IC50 of less than 1000 nM. Compound `Cc1noc(C)c1-c1cc(-c2cccnc2)c2[nH]c(=O)n3c2c1OCC3c1ccccc1` (stereo not drawn) [Example 52, 7-(3,5-Dimethylisoxazol-4-yl)-4-phenyl-9-pyridin-3-yl-4,5-dihydroimidazo[1,5,4-de][1,4]benzoxazin-2(1H)-one] has an IC50 of less than 1000 nM. `Cc1noc(C)c1-c1ccc2nc(N3CC[C@@H](NC(=O)C(C)C)C3)n3c2c1OC[C@@H]3c1ccccn1` [Example 209, N-{(3R)-1-[(4S)-7-(3,5-dimethylisoxazol-4-yl)-4-pyridin-2-yl-4,5-dihydroimidazo[1,5,4-de][1,4]benzoxazin-2-yl]pyrrolidin-3-yl}-2-methylpropanamide] showed an IC50 of less than 1000 nM. `Cc1noc(C)c1-c1ccc2nc(N3CCCN(C(=O)OC(C)(C)C)CC3)n3c2c1OC[C@@H]3c1ccccn1` [Example 197, tert-butyl 4-[(4S)-7-(3,5-dimethylisoxazol-4-yl)-4-pyridin-2-yl-4,5-dihydroimidazo[1,5,4-de][1,4]benzoxazin-2-yl]-1,4-diazepane-1-carboxylate] showed an IC50 of less than 1000 nM. `Cc1noc(C)c1-c1ccc2[nH]c(=O)n3c2c1CCC3c1ccccc1` (stereo not drawn) [Example 120, 7-(3,5-Dimethylisoxazol-4-yl)-4-phenyl-5,6-dihydro-4H-imidazo[4,5,1-ij]quinolin-2(1H)-one] gave an IC50 of less than 1000 nM. With `Cc1noc(C)c1-c1ccc2nc(N3CC[C@@H](NC(=O)C4CCC4)C3)n3c2c1OC[C@@H]3c1ccccn1` [Example 210, N-{(3R)-1-[(4S)-7-(3,5-dimethylisoxazol-4-yl)-4-pyridin-2-yl-4,5-dihydroimidazo[1,5,4-de][1,4]benzoxazin-2-yl]pyrrolidin-3-yl}cyclobutanecarboxamide] the IC50 was less than 1000 nM. With `Cc1noc(C)c1-c1ccc2nc(N3CC[C@@H](NC(=O)C(F)(F)F)C3)n3c2c1OC[C@@H]3c1ccccn1` [Example 203, N-{(3R)-1-[(4S)-7-(3,5-dimethylisoxazol-4-yl)-4-pyridin-2-yl-4,5-dihydroimidazo[1,5,4-de][1,4]benzoxazin-2-yl]pyrrolidin-3-yl}-2,2,2-trifluoroacetamide] the IC50 was less than 1000 nM. For `CCNc1nc2c(F)cc(-c3c(C)noc3C)c3c2n1C(c1cccnc1)CO3` (stereo not drawn) [Example 158, 7-(3,5-Dimethylisoxazol-4-yl)-N-ethyl-9-fluoro-4-pyridin-3-yl-4,5-dihydroimidazo[1,5,4-de][1,4]benzoxazin-2-amine], the IC50 was less than 1000 nM. Compound `Cc1noc(C)c1-c1ccc2nc(N3CCN(CC4CC4)CC3)n3c2c1OC[C@@H]3c1ccccn1` [Example 183, (4S)-2-[4-(cyclopropylmethyl)piperazin-1-yl]-7-(3,5-dimethylisoxazol-4-yl)-4-pyridin-2-yl-4,5-dihydroimidazo[1,5,4-de][1,4]benzoxazine] has an IC50 of less than 1000 nM.

Same assay, conditions: Homo sapiens, KMS-12-BM, 72 h, 3 days, Cell Titer-GLO, read-out: KMS cellular IC50
With `Cc1noc(C)c1-c1ccc2[nH]c(=O)n3c2c1OCC3c1cccnc1C(=O)N(C)C` (stereo not drawn) [Example 129, 3-[7-(3,5-Dimethylisoxazol-4-yl)-2-oxo-1,2,4,5-tetrahydroimidazo[1,5,4-de][1,4]benzoxazin-4-yl]-N,N-dimethylpyridine-2-carboxamide] the IC50 was less than 1000 nM. Compound `Cc1noc(C)c1-c1ccc2nc(N(C)CCO)n3c2c1OCC3c1ccccn1` (stereo not drawn) [Example 185, 2-[[7-(3,5-dimethylisoxazol-4-yl)-4-pyridin-2-yl-4,5-dihydroimidazo[1,5,4-de][1,4]benzoxazin-2-yl](methyl)amino]ethanol] has an IC50 of less than 1000 nM. In the case of `Cc1noc(C)c1-c1ccc2c3c1CCC(c1ccccc1)n3c(=O)n2C` (racemic) [Example 121, 7-(3,5-Dimethylisoxazol-4-yl)-1-methyl-4-phenyl-5,6-dihydro-4H-imidazo[4,5,1-ij]quinolin-2(1H)-one], the IC50 is reported as less than 1000 nM. `Cc1noc(C)c1-c1ccc2[nH]c(=O)n3c2c1OCC3C1CCCCN1` (single isomer, unassigned) [Example 63A, 7-(3,5-Dimethylisoxazol-4-yl)-4-piperidin-2-yl-4,5-dihydroimidazo[1,5,4-de][1,4]benzoxazin-2(1H)-one 2,2,2-trifluoroacetate] showed an IC50 of 1000 to 10000 nM.

— patent publication US10464947B2 (Incyte Corporation, priority 2013, dated 2019)
